For one test, the system named is ectopic 4T1 breast tumor. Nature of the test: ICG detection in tumor with the fluorescence image-guided surgical system. Particulars: 0.357 mg/kg ICG via tail vein, 24 hours, laser excitation directed at the tumor. The format is in vivo, mouse. The procedure: In this experiment, 0.357 mg/kg ICG was systemically administered via a tail vein. After 24 hours, the mouse was euthanized and tumor fluorescence enhancement was assessed by using the fluorescence image-guided surgical system method. When the laser excitation source of fluorescence image-guided surgical system method is directed off the tumor (FIG. 9A,B), no fluorescence enhancement of the tumor is seen. […] This example uses a breast tumor model.

In another test the test system is MDA-MB-231 tumors. The test is described as follows: In vivo testing, MDA-MB-231-iRFP xenograft: imaging, image-guided tumor removal, relative biodistribution. More on the design: species or system female nude mice. Particulars: I.V. injection of 10 nmol ICG (free or fHNP), 24 hours. On the procedure:
Twelve to fourteen week old female nude mice (Jackson Labs) were injected subcutaneously with 2×10^6) MDA-MB-231 cells in 50/50 media/matrigel. MDA-MB-231 cells were transfected with NIR fluorescent protein (iRFP). When the tumors reached 500-1000 mm^3, 10 nmol ICG or fHNP (10 wt % PBA was the hydrophobic ligand in this case) was injected into a tail vein. After 24 hours the mice were euthanized and imaged whole using a LI-COR Pearl Impulse system, which has a “700 nm” channel that can detect iRFP-labeled cell and an “800 nm” channel that can detect ICG or Cy7.5. Mice then underwent image-guided tumor removal with the fluorescence image-guided surgical system method. First, skin was removed to expose the breast tumor xenograft. […] Mice were then re-imaged on the LI-COR system to compare area identified as tumor by the fluorescence image-guided surgical system with iRFP labeled tumors. This was followed by necropsy, further image acquisition for the overall estimation of relative ICG biodistribution, and preparation of tissues for histology.

The results in this text go back to patent US11617804B2, “Hyaluronic acid-based nanoparticles as biosensors for imaging-guided surgery and drug delivery vehicles and methods associated therewith” (Wake Forest University, priority 2014, dated 2023).

Turning to `CC1(C)C(/C=C/C=C/C=C/C=C2\N(CCCCS(=O)(=O)O)c3ccc4ccccc4c3C2(C)C)=[N+](CCCCS(=O)(=O)[O-])c2ccc3ccccc3c21` [ICG, Indocyanine green], the Tumor fluorescence enhancement result in the test with ectopic 4T1 breast tumor is on record as “strong fluorescence signal”. For the same molecule, the Tumor signal enhancement result in the test on MDA-MB-231 tumors is “tumor signal enhancement”.
